According to PubChem BioAssay (NCI):
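A five-concentration, 48-hour dose response in 96-well plates underlies each endpoint, interpolated linearly between surrounding concentrations. TGI marks complete inhibition of growth.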

Key:
Assay in all cases: growth of human tumour cells (NCI), 48 h
[1] = tested on: HCC-2998 colon
[2] = tested on: M14 melanoma
[3] = tested on: SK-OV-3 ovarian
[4] = tested on: BT-549 breast
[5] = tested on: LOX IMVI melanoma
[6] = tested on: SF-295 CNS
[7] = tested on: CAKI-1 renal
[8] = tested on: HCT-116 colon
[9] = tested on: HOP-62 NSCLC
[10] = tested on: T-47D breast
[11] = tested on: NCI-H460 lung
[12] = tested on: U251 CNS
[13] = tested on: SK-MEL-5 melanoma
[14] = tested on: OVCAR-8 ovarian
[15] = tested on: MALME-3M melanoma
[16] = tested on: A498 renal
[17] = tested on: ACHN renal
[18] = tested on: SNB-75 CNS
[19] = tested on: CCRF-CEM leukemia
[20] = tested on: RXF 393 renal
[21] = tested on: SK-MEL-2 melanoma
[22] = tested on: SNB-19 CNS
[23] = tested on: MCF7 breast
[24] = tested on: SW-620 colon
[25] = tested on: MDA-MB-435
[26] = tested on: 786-0 renal
[27] = tested on: A549 NSCLC
[28] = tested on: HL-60(TB) leukemia
[29] = tested on: HT29 colon
[30] = tested on: KM12 colon
[31] = tested on: OVCAR-5 ovarian
[32] = tested on: OVCAR-3 ovarian
[33] = tested on: UACC-62 melanoma
[34] = tested on: K-562 leukemia
[35] = tested on: SR leukemia
[36] = tested on: NCI-H522 lung
[37] = tested on: HCT-15 colon
[38] = tested on: SF-268 CNS
[39] = tested on: EKVX NSCLC
[40] = tested on: OVCAR-4 ovarian
[41] = tested on: TK-10 renal
[42] = tested on: HS 578T breast
[43] = tested on: UACC-257 melanoma
[44] = tested on: DU-145 prostate
[45] = tested on: MDA-MB-231 breast
[46] = tested on: IGROV1 ovarian
[47] = tested on: SK-MEL-28 melanoma
[48] = tested on: SN12C renal
[49] = tested on: NCI-H23 lung
[50] = tested on: UO-31 renal
[51] = tested on: MDA-N
[52] = tested on: HOP-92 NSCLC
[53] = tested on: RPMI-8226 leukemia
[54] = tested on: NCI/ADR-RES ovarian
[55] = tested on: SF-539 CNS
[56] = tested on: PC-3 prostate
[57] = tested on: COLO 205 colon

CC(C)=CC1C(C(=O)Oc2ccccc2C(C)C)C1(C)C (configuration not stated)
TGI [1]: 33.4 µM
TGI [2]: > 100 µM
TGI [3]: > 100 µM
TGI [4]: > 100 µM
TGI [5]: 33.4 µM
TGI [6]: 33.8 µM
TGI [7]: > 100 µM
TGI [8]: 50.9 µM
TGI [9]: 85.5 µM
TGI [10]: 50.3 µM
TGI [11]: 47 µM
TGI [12]: 33.6 µM
TGI [13]: 33.9 µM
TGI [14]: > 100 µM
TGI [15]: 34.1 µM
TGI [16]: 37.1 µM
TGI [17]: 33 µM
TGI [18]: 62 µM
TGI [19]: 59.6 µM
TGI [20]: 33.5 µM
TGI [21]: 33.1 µM
TGI [22]: > 100 µM
TGI [23]: 38 µM
TGI [24]: 66 µM
TGI [25]: > 100 µM
TGI [26]: 42.5 µM
TGI [27]: > 100 µM
TGI [28]: 38.5 µM
TGI [29]: 36.9 µM
TGI [30]: 38.9 µM
TGI [31]: 48.8 µM
TGI [32]: 34.6 µM
TGI [33]: > 100 µM
TGI [34]: 83.8 µM
TGI [35]: 61.7 µM
TGI [36]: 35.5 µM
TGI [37]: 53.1 µM
TGI [38]: > 100 µM
TGI [39]: 36.5 µM
TGI [40]: > 100 µM
TGI [41]: 96 µM
TGI [42]: > 100 µM
TGI [43]: 44.2 µM
TGI [44]: > 100 µM
TGI [45]: 52 µM
TGI [46]: > 100 µM
TGI [47]: > 100 µM
TGI [48]: 40.1 µM
TGI [49]: 65.4 µM
TGI [50]: 34.6 µM
TGI [51]: 90 µM
TGI [52]: > 100 µM
TGI [53]: 48.2 µM
TGI [54]: > 100 µM

Cc1ccc(Cc2cc(N3CCN(c4cccc(Cl)c4)CC3)nnc2C)cc1
TGI [2]: > 100 µM
TGI [3]: > 100 µM
TGI [4]: > 100 µM
TGI [6]: > 100 µM
TGI [7]: > 100 µM
TGI [8]: > 100 µM
TGI [9]: > 100 µM
TGI [10]: > 100 µM
TGI [11]: > 100 µM
TGI [12]: > 100 µM
TGI [13]: 41.6 µM
TGI [55]: > 100 µM
TGI [56]: > 100 µM
TGI [14]: > 100 µM
TGI [16]: > 100 µM
TGI [17]: > 100 µM
TGI [18]: > 100 µM
TGI [20]: > 100 µM
TGI [21]: > 100 µM
TGI [22]: > 100 µM
TGI [57]: 73.8 µM
TGI [23]: > 100 µM
TGI [24]: > 100 µM
TGI [25]: > 100 µM
TGI [26]: > 100 µM
TGI [27]: > 100 µM
TGI [29]: 81.2 µM
TGI [30]: > 100 µM
TGI [31]: > 100 µM
TGI [32]: > 100 µM
TGI [33]: > 100 µM
TGI [36]: 81.5 µM
TGI [37]: > 100 µM
TGI [38]: > 100 µM
TGI [39]: > 100 µM
TGI [40]: > 100 µM
TGI [41]: > 100 µM
TGI [42]: > 100 µM
TGI [43]: > 100 µM
TGI [44]: > 100 µM
TGI [45]: > 100 µM
TGI [47]: > 100 µM
TGI [48]: > 100 µM
TGI [49]: > 100 µM
TGI [50]: > 100 µM
TGI [51]: > 100 µM
TGI [53]: > 100 µM
TGI [54]: > 100 µM
